Assay results taken from patent US7414066B2, “Amide compounds and medications containing the same technical field” (Kowa Company Ltd., priority 1999, dated 2008).

| melting point | SMILES |
| --- | --- |
| 74 to 76 °C | Cc1cc(SC(C)C)c(NC(=O)CCCCCCSc2nc3ccccc3s2)c(SC(C)C)n1 [Compound No. 856, 7-(benzothiazol-2-ylthio)-N-[2,4-bis(isopropylthio)-6-methyl-3-pyridyl]heptanamide] |
| 107 to 108 °C | Cc1cc(SC(C)C)c(NC(=O)CCCCCCCSc2nc3ccccc3s2)c(SC(C)C)n1 [Compound No. 857, 8-(benzothiazol-2-ylthio)-N-[2,4-bis(isopropylthio)-6-methyl-3-pyridyl]octanamide] |
| 223 to 224 °C | Cc1cc(SC(C)C)c(NC(=O)CSc2nc3ccccc3[nH]2)c(SC(C)C)n1 [Compound No. 861, 2-(benzimidazol-2-ylthio)-N-[2,4-bis(isopropylthio)-6-methyl-3-pyridyl]acetamide] |
| 175 to 176 °C | Cc1cc(SC(C)C)c(NC(=O)CCCCSc2nc3ccccc3[nH]2)c(SC(C)C)n1 [Compound No. 864, 5-(benzimidazol-2-ylthio)-N-[2,4-bis(isopropylthio)-6-methyl-3-pyridyl]pentanamide] |
| 175 to 176 °C | Cc1cc(SC(C)C)c(NC(=O)CCCCCSc2nc3ccccc3[nH]2)c(SC(C)C)n1 [Compound No. 865, 6-(benzimidazol-2-ylthio)-N-[2,4-bis(isopropylthio)-6-methyl-3-pyridyl]hexanamide] |
| 118 to 121 °C | Cc1cc(SC(C)C)c(NC(=O)CCCCCCSc2nc3ccccc3[nH]2)c(SC(C)C)n1 [Compound No. 866, 7-(benzoimidazol-2-ylthio)-N-[2,4-bis(isopropylthio)-6-methyl-3-pyridyl]heptanamide] |
| 112 to 114 °C | Cc1cc(SC(C)C)c(NC(=O)CCCCCCCCSc2nc3ccccc3[nH]2)c(SC(C)C)n1 [Compound No. 868, 9-(benzimidazol-2-ylthio)-N-[2,4-bis(isopropylthio)-6-methyl-3-pyridyl]nonanamide] |
| 148 to 151 °C | CSc1nc(C)nc(SC)c1NC(=O)CCCCCSc1nc2ccccc2o1 [Compound No. 1145, 6-(benzoxazole-2-ylthio)-N-[2-methyl-4,6-bis(methylthio)-5-pyrimidyl)hexanamide] |
| 132 to 133 °C | CSc1cc(C)nc(SC)c1NC(=O)CCCCCSc1nc2ncccc2o1 [Compound No. 1237, 6-(oxazolo[4,5-b]pyridin-2-ylthio)-N-[2,4-bis(methylthio)-6-methyl-3-pyridyl]hexanamide] |
| 141 to 142 °C | COC(=O)c1cccc2nc(SCCCCCC(=O)Nc3c(SC)cc(C)nc3SC)oc12 [Compound No. 1238, 6-(7-methoxycarbonylbenzoxazol-2-ylthio)-N-[2,4-bis(methylthio)-6-methyl-3-pyridyl]hexanamide] |
| 126 to 128 °C | COC(=O)c1cccc2nc(SCCCCCCCCC(=O)Nc3c(SC)cc(C)nc3SC)oc12 [Compound No. 1240, 9-(7-methoxycarbonylbenzoxazol-2-ylthio)-N-[2,4-bis(methylthio)-6-methyl-3-pyridyl]nonanamide] |
| 207 to 209 °C | CSc1cc(C)nc(SC)c1NC(=O)CSc1nc2cccc(C(F)(F)F)c2o1 [Compound No. 1247, 2-(7-trifluoromethylbenzoxazol-2-ylthio)-N-[2,4-bis(methylthio)-6-methyl-3-pyridyl]acetamide] |
| 179 to 180 °C | CSc1cc(C)nc(SC)c1NC(=O)CCCCSc1nc2cccc(C(F)(F)F)c2o1 [Compound No. 1250, 5-(7-trifluoromethylbenzoxazol-2-ylthio)-N-[2,4-bis(methylthio)-6-methyl-3-pyridyl]pentanamide] |
| 129 to 131 °C | CSc1cc(C)nc(SC)c1NC(=O)CCCCCCSc1nc2cccc(C(F)(F)F)c2o1 [Compound No. 1252, 7-(7-trifluoromethylbenzoxazol-2-ylthio)-N-[2,4-bis(methylthio)-6-methyl-3-pyridyl]heptanamide] |
| 115 to 116 °C | CSc1cc(C)nc(SC)c1NC(=O)CCCCCCCSc1nc2cccc(C(F)(F)F)c2o1 [Compound No. 1253, 8-(7-trifluoromethylbenzoxazol-2-ylthio)-N-[2,4-bis(methylthio)-6-methyl-3-pyridyl]octanamide] |
| 155 to 156 °C | CSc1cc(C)nc(SC)c1NC(=O)CCCCSc1nc2c(C)c(Cl)cc(C(C)C)c2o1 [Compound No. 1260, 5-(5-chloro-7-isopropyl-4-methylbenzoxazol-2-ylthio)-N-[2,4-bis(methylthio)-6-methyl-3-pyridyl]pentanamide] |
| 129 to 131 °C | CSc1cc(C)nc(SC)c1NC(=O)CCCCCCSc1nc2c(C)c(Cl)cc(C(C)C)c2o1 [Compound No. 1262, 7-(5-chloro-7-isopropyl-4-methylbenzoxazol-2-ylthio)-N-[2,4-bis(methylthio)-6-methyl-3-pyridyl]heptanamide] |

| melting point | SMILES |
| --- | --- |
| 182 to 183 °C | CCSc1cc(C)nc(SCC)c1NC(=O)CSc1nc2cccc(C(F)(F)F)c2o1 [Compound No. 1267, 2-(7-trifluoromethylbenzoxazol-2-ylthio)-N-[2,4-bis(ethylthio)-6-methyl-3-pyridyl]acetamide] |
| 148 to 150 °C | CCSc1cc(C)nc(SCC)c1NC(=O)CCCSc1nc2cccc(C(F)(F)F)c2o1 [Compound No. 1269, 4-(7-trifluoromethylbenzoxazol-2-ylthio)-N-[2,4-bis(ethylthio)-6-methyl-3-pyridyl]butanamide] |
| 155 to 156 °C | CCSc1cc(C)nc(SCC)c1NC(=O)CCCCSc1nc2cccc(C(F)(F)F)c2o1 [Compound No. 1270, 5-(7-trifluoromethylbenzoxazol-2-ylthio)-N-[2,4-bis(ethylthio)-6-methyl-3-pyridyl]pentanamide] |
| 127 to 128 °C | CCSc1cc(C)nc(SCC)c1NC(=O)CCCCCCSc1nc2cccc(C(F)(F)F)c2o1 [Compound No. 1272, 7-(7-trifluoromethylbenzoxazol-2-ylthio)-N-[2,4-bis(ethylthio)-6-methyl-3-pyridyl]heptanamide] |
| 99 to 100 °C | CCSc1cc(C)nc(SCC)c1NC(=O)CCCCCCCSc1nc2cccc(C(F)(F)F)c2o1 [Compound No. 1273, 8-(7-trifluoromethylbenzoxazol-2-ylthio)-N-[2,4-bis(ethylthio)-6-methyl-3-pyridyl]octanamide] |
| 115 to 116 °C | CCSc1cc(C)nc(SCC)c1NC(=O)CCCCCCCCSc1nc2cccc(C(F)(F)F)c2o1 [Compound No. 1274, 9-(7-trifluoromethylbenzoxazol-2-ylthio)-N-[2,4-bis(ethylthio)-6-methyl-3-pyridyl]nonanamide] |
| 141 to 142 °C | CCSc1cc(C)nc(SCC)c1NC(=O)CCCCSc1nc2c(C)c(Cl)cc(C(C)C)c2o1 [Compound No. 1280, 5-(5-chloro-7-isopropyl-4-methylbenzoxazol-2-ylthio)-N-[2,4-bis(ethylthio)-6-methyl-3-pyridyl]pentanamide] |
| 117 to 120 °C | CCSc1cc(C)nc(SCC)c1NC(=O)CCCCCCSc1nc2c(C)c(Cl)cc(C(C)C)c2o1 [Compound No. 1282, 7-(5-chloro-7-isopropyl-4-methylbenzoxazol-2-ylthio)-N-[2,4-bis(ethylthio)-6-methyl-3-pyridyl]heptanamide] |
| 82 to 84 °C | CCSc1cc(C)nc(SCC)c1NC(=O)CCCCCCCSc1nc2c(C)c(Cl)cc(C(C)C)c2o1 [Compound No. 1283, 8-(5-chloro-7-isopropyl-4-methylbenzoxazol-2-ylthio)-N-[2,4-bis(ethylthio)-6-methyl-3-pyridyl]octanamide] |
| 93 to 94 °C | CCSc1cc(C)nc(SCC)c1NC(=O)CCCCCCCCSc1nc2c(C)c(Cl)cc(C(C)C)c2o1 [Compound No. 1284, 9-(5-chloro-7-isopropyl-4-methylbenzoxazol-2-ylthio)-N-[2,4-bis(ethylthio)-6-methyl-3-pyridyl]nonanamide] |
| 135 to 136 °C | Cc1cc(SC(C)C)c(NC(=O)CCCSc2nc3cccc(C(F)(F)F)c3o2)c(SC(C)C)n1 [Compound No. 1289, 4-(7-trifluoromethylbenzoxazol-2-ylthio)-N-[2,4-bis(isopropylthio)-6-methyl-3-pyridyl]butanamide] |
| 118 to 120 °C | Cc1cc(SC(C)C)c(NC(=O)CCCCSc2nc3cccc(C(F)(F)F)c3o2)c(SC(C)C)n1 [Compound No. 1290, 5-(7-trifluoromethylbenzoxazol-2-ylthio)-N-[2,4-bis(isopropylthio)-6-methyl-3-pyridyl]pentanamide] |
| 102 to 103 °C | Cc1cc(SC(C)C)c(NC(=O)CCCCCSc2nc3cccc(C(F)(F)F)c3o2)c(SC(C)C)n1 [Compound No. 1291, 6-(7-trifluoromethylbenzoxazol-2-ylthio)-N-[2,4-bis(isopropylthio)-6-methyl-3-pyridyl]hexanamide] |
| 141 to 143 °C | Cc1cc(SC(C)C)c(NC(=O)CCCSc2nc3c(C)c(Cl)cc(C(C)C)c3o2)c(SC(C)C)n1 [Compound No. 1299, 4-(5-chloro-7-isopropyl-4-methylbenzoxazol-2-ylthio)-N-[2,4-bis(isopropylthio)-6-methyl-3-pyridyl]butanamide] |
| 143 to 145 °C | Cc1cc(SC(C)C)c(NC(=O)CCCCSc2nc3c(C)c(Cl)cc(C(C)C)c3o2)c(SC(C)C)n1 [Compound No. 1300, 5-(5-chloro-7-isopropyl-4-methylbenzoxazol-2-ylthio)-N-[2,4-bis(isopropylthio)-6-methyl-3-pyridyl]pentanamide] |
| 99 to 101 °C | Cc1cc(SC(C)C)c(NC(=O)CCCCCSc2nc3c(C)c(Cl)cc(C(C)C)c3o2)c(SC(C)C)n1 [Compound No. 1301, 6-(5-chloro-7-isopropyl-4-methylbenzoxazol-2-ylthio)-N-[2,4-bis(isopropylthio)-6-methyl-3-pyridyl]hexanamide] |
| 91 to 93 °C | Cc1cc(SC(C)C)c(NC(=O)CCCCCCSc2nc3c(C)c(Cl)cc(C(C)C)c3o2)c(SC(C)C)n1 [Compound No. 1302, 7-(5-chloro-7-isopropyl-4-methylbenzoxazol-2-ylthio)-N-[2,4-bis(isopropylthio)-6-methyl-3-pyridyl]heptanamide] |
